From patent publication US4536397A, “Antibiotics, neoviridogriseins, and their method of production” (Sanraku-Ocean Co., Ltd., priority 1983, dated 1985)
Values after ≈ are worked out from the molar mass of the structure shown. Starred links: 1 amine or outer side, 2 acyl side, 3 side chain; linkers in the order of their positions; H or OH if unused. Positions of bridges follow the written chain, without caps; N, C: chain ends. Non-standard residues stand in square brackets, D forms with d. Residues, ends and D or L forms follow the SMILES beside them. *: point of attachment. X2 = CC(C)[C@H](C)[C@@H](C(=O)[*:2])N(C)[*:1]; d(cisHyp) = O=C(O)[C@H]1C[C@@H](O)CN1; X1 = CC(C)C(C)C(C(=O)[*:2])N(C)[*:1]; Picolinoyl(3-OH) = O=C(c1ncccc1O)*; NMePhg = CN[CH](C(=O)O)c1ccccc1; Hyp = O=C(O)[CH]1C[CH](O)CN1; Abu = CC[CH](N)C(=O)O; Sar = CNCC(=O)O

What was measured:
Staphylococcus sp. = experiment: MIC, tube dilution method; assay type: cell-based; settings: BHI broth
Escherichia coli = experiment: MIC, tube dilution method; assay type: cell-based; settings: BHI broth
Proteus vulgaris = experiment: MIC, tube dilution method; assay type: cell-based; settings: BHI broth
Pseudeomonas aeruginosa = experiment: MIC, tube dilution method; assay type: cell-based; settings: BHI broth
Staphylococcus aureus [1] = experiment: MIC, tube dilution method; assay type: cell-based; settings: BHI broth
[2] = test system: Diplococcus pneumoniac type 1; experiment: MIC, tube dilution method; assay type: cell-based, Diplococcus pneumoniae; settings: BHI broth containing 10% horse blood
Streptococcus pyogenes = experiment: MIC, tube dilution method; assay type: cell-based; settings: BHI broth containing 10% horse blood
Candida albicans = experiment: MIC, tube dilution method; assay type: cell-based; settings: malt extract-yeast extract medium
Sarcina lutea = experiment: MIC, tube dilution method (incl. synergism with griseoviridin); assay type: cell-based; settings: Table 1; BHI broth
Solubility in solvents = assay type: physicochemical; settings: for solubility in organic solvents: methanol, ethanol, propanols, n-butanol, dioxane, acetates, ketones, benzene, toluene, chlorinated solvents, DMF, DMSO
[3] = test system: Bacillus subtilis ATCC 6633; experiment: MIC, tube dilution method; assay type: cell-based; settings: BHI broth
Salmonella gallinanum = experiment: MIC, tube dilution method; assay type: cell-based; settings: BHI broth
Staphylococcus aureus [4] = experiment: MIC repeated with a far lower dilution rate; assay type: cell-based; settings: far lower dilution rate, brain heart infusion broth
Excerpt: This MIC experiment was based on the two-fold dilutions. To differentiate neoviridogrisein II and viridogrisein in their antibiotic activity, the MIC determination was repeated with a far lower dilution rate.
Medium: brain heart infusion broth

[5] = test system: Mycoplasma gallisepticum KP13; experiment: MIC, dilution method, Mycoplasma; assay type: cell-based; design: unit not given beside the values; settings: Table 4; PPLO enrichment broth (Eiken)
Description: (§1) The MIC were determined by the dilution method.
Medium (1): PPLO enrichment broth (Eiken, Japan)
(§2) was tested in vitro agains several Mycoplasma strains.

Mycoplasma fermentans = experiment: MIC, dilution method, Mycoplasma; assay type: cell-based; settings: Table 4; PPLO broth (Chanock's medium; Difco)
Description: as §1
(§3) (2): PPLO broth (Chanock's medium; Difco)
as §2

[6] = test system: Mycoplasma pulmonis PG 22; experiment: MIC, dilution method, Mycoplasma; assay type: cell-based; settings: Table 4; PPLO broth (Chanock's medium; Difco)
Description: as §1, §3, §2

[7] = test system: Mycoplasma agalactiae PG 2; experiment: MIC, dilution method, Mycoplasma; assay type: cell-based; settings: Table 4; PPLO broth (Chanock's medium; Difco)
Description: as §1, §3, §2

[8] = Growth promotion in chicks on rye diet, 11 days; assay type: in vivo; settings: diet conc 100 ppm
Description: was tested in vivo by incorporation in the diet of growing chicks. One-day old cockerels, 15 birds per treatment were used. The chicks were maintained for 11 days on a feed containing about 55% rye grain, supplemented with vitamins, minerals, fat and protein sources. The high content of rye grain normally gives poor to moderate growth, and this diet is a standard one used for screening growth promoters and antibiotic feed additives. Penicillin (100 ppm) was used as a positive control. Feed/Gain ratio is grams feed consumed per gram of weight gained. Body weight ratio is the ratio of chick body weight at the end of the 11 day study to the initial body weight. The last column is the average gain per bird (in grams).

Row | SMILES | MIC (Staphylococcus sp.; Staphylococcus sp. (PC)r) | MIC (Staphylococcus sp.; Staphylococcus sp.) | MIC (Escherichia coli) | MIC (Proteus vulgaris) | MIC (Pseudeomonas aeruginosa) | MIC (Staphylococcus aureus [1]; strain 209P) | MIC (Staphylococcus aureus [1]; strain (BX-1633)(PC)r) | MIC (Staphylococcus aureus [1]; strain (EM)r) | MIC (Staphylococcus aureus [1]; strain (EM, CM, SM, PC, TC)r) | MIC (Staphylococcus aureus [1]; strain (EM, OM)r) | MIC (Staphylococcus aureus [1]; strain (PC, EM, NM)r) | MIC (Staphylococcus aureus [1]; strain (PC, TC, EM, LM)r 1) | MIC (Staphylococcus aureus [1]; strain (PC, TC, EM, LM)r 2) | MIC (Staphylococcus aureus [1]; strain (SM, STH)r) | MIC (Staphylococcus aureus [1]; strain (STH)r) | MIC (Staphylococcus aureus [1]; strain (TC, CP, PC)r) | MIC (Staphylococcus aureus [1]; strain (TC, EM, LM, CP)r) | MIC (Staphylococcus aureus [1]; strain Russell(PC)r) | MIC (Staphylococcus aureus [1]; strain Smith) | MIC [2] | also measured
1 | CCC1NC(=O)C(C(C)C(C)C)N(C)C(=O)CN(C)C(=O)C2CC(O)CN2C(=O)C(CC(C)C)NC(=O)C(NC(=O)c2ncccc2O)C(C)OC(=O)C(c2ccccc2)N(C)C1=O (stereo not drawn) [NV III, neoviridogrisein III] ({Picolinoyl(3-OH)}-TL[Hyp][Sar][X1][Abu][NMePhg]; ester 1-C; configuration not given here) | 0.8 µg/mL (≈ 0.896 µM) | 0.8 µg/mL (≈ 0.896 µM) | > 25 µg/mL | > 25 µg/mL | > 25 µg/mL | 0.2 µg/mL (≈ 0.224 µM) | 0.4 µg/mL (≈ 0.448 µM) | 0.4 µg/mL (≈ 0.448 µM) | 0.4 µg/mL (≈ 0.448 µM) | 0.8 µg/mL (≈ 0.896 µM) | 0.4 µg/mL (≈ 0.448 µM) | 6.25 µg/mL (≈ 7 µM) | 6.25 µg/mL (≈ 7 µM) | 0.2 µg/mL (≈ 0.224 µM) | 1.6 µg/mL (≈ 1.79 µM) | 0.4 µg/mL (≈ 0.448 µM) | 6.25 µg/mL (≈ 7 µM) | 0.4 µg/mL (≈ 0.448 µM) | 0.2 µg/mL (≈ 0.224 µM) | 0.2 µg/mL (≈ 0.224 µM) | MIC (Streptococcus pyogenes): 0.4 µg/mL (≈ 0.448 µM); MIC (Candida albicans): > 25 µg/mL; MIC (Sarcina lutea): 0.4 µg/mL; solubility in organic solvents (Solubility in solvents): soluble; solubility in petroleum ether and hexane (Solubility in solvents): practically insoluble; solubility in water and ethyl ether (Solubility in solvents): hardly soluble; MIC [3]: 0.8 µg/mL (≈ 0.896 µM); MIC (Salmonella gallinanum): > 25 µg/mL
2 | CC(C)C[C@H]1NC(=O)[C@@H](NC(=O)c2ncccc2O)[C@@H](C)OC(=O)[C@H](c2ccccc2)N(C)C(=O)[C@H](C)NC(=O)[C@H]([C@@H](C)C(C)C)N(C)C(=O)CN(C)C(=O)[C@H]2C[C@@H](O)CN2C1=O [VG, viridogrisein] ({Picolinoyl(3-OH)}-T[dL][d(cisHyp)][Sar][X2]A[NMePhg]; ester 1-C) | 0.4 µg/mL (≈ 0.455 µM) | 0.8 µg/mL (≈ 0.91 µM) | > 25 µg/mL | > 25 µg/mL | > 25 µg/mL | 0.2 µg/mL (≈ 0.228 µM) | 0.4 µg/mL (≈ 0.455 µM) | 0.4 µg/mL (≈ 0.455 µM) | 0.4 µg/mL (≈ 0.455 µM) | 0.8 µg/mL (≈ 0.91 µM) | 0.8 µg/mL (≈ 0.91 µM) | 6.25 µg/mL (≈ 7.11 µM) | 6.25 µg/mL (≈ 7.11 µM) | 0.4 µg/mL (≈ 0.455 µM) | 1.6 µg/mL (≈ 1.82 µM) | 0.4 µg/mL (≈ 0.455 µM) | 6.25 µg/mL (≈ 7.11 µM) | 0.4 µg/mL (≈ 0.455 µM) | 0.4 µg/mL (≈ 0.455 µM) | 0.4 µg/mL (≈ 0.455 µM) | MIC (Staphylococcus aureus [4]; strain 209 P): 0.133 µg/mL (≈ 0.151 µM); MIC (Staphylococcus aureus [4]; strain (EM, CM, SM, PC, TC)r): 0.334 µg/mL (≈ 0.38 µM); MIC (Staphylococcus aureus [4]; strain (TC, CP, PC)r): 0.334 µg/mL (≈ 0.38 µM); MIC (Staphylococcus aureus [4]; strain Bx-1633(PC)r): 0.267 µg/mL (≈ 0.304 µM); MIC (Staphylococcus aureus [4]; strain Russell(PC)r): 0.267 µg/mL (≈ 0.304 µM); MIC (Staphylococcus aureus [4]; strain Smith): 0.267 µg/mL (≈ 0.304 µM); MIC [5]: 0.10; MIC (Mycoplasma fermentans): < 0.05; MIC [6]: 1.56; MIC [7]: 0.78; MIC (Streptococcus pyogenes): 0.4 µg/mL (≈ 0.455 µM); MIC (Candida albicans): > 25 µg/mL; MIC (Sarcina lutea): 0.2 µg/mL; solubility in organic solvents (Solubility in solvents): soluble; solubility in petroleum ether and hexane (Solubility in solvents): practically insoluble; solubility in water and ethyl ether (Solubility in solvents): hardly soluble; MIC [3]: 0.8 µg/mL (≈ 0.91 µM); MIC (Salmonella gallinanum): > 25 µg/mL
3 | CC1(C)S[C@@H]2[C@H](NC(=O)Cc3ccccc3)C(=O)N2[C@H]1C(=O)O [Penicillin] | – | – | – | – | – | – | – | – | – | – | – | – | – | – | – | – | – | – | – | – | FEED/GAIN RATIO ([8]; 11 days, grams feed consumed per gram of weight gained): 1.197; AVG B.W.GAIN ([8]; average gain per bird, 11 days): 163.20 GMS; BODY WEIGHT RATIO ([8]; body weight at end of 11 days to initial): 5.012
